Patent US9694016B2 (Novartis AG, priority 2013, dated 2017)
pIC50: −log10 of the molar value. Like-named read-outs stand apart in the source and are kept apart here.

Biological target: b-Raf (V600E) (Homo sapiens (Human), UniProt P15056, V600E)
Details: read-out: b-Raf IC-50, AlphaScreen
[1] = 60 min pre-incubation, 3 hours reaction
[2] = 60 min pre-incubation, reaction 3 hours at room temperature

b-Raf (V600E), sequence (P15056 whole entry V600E): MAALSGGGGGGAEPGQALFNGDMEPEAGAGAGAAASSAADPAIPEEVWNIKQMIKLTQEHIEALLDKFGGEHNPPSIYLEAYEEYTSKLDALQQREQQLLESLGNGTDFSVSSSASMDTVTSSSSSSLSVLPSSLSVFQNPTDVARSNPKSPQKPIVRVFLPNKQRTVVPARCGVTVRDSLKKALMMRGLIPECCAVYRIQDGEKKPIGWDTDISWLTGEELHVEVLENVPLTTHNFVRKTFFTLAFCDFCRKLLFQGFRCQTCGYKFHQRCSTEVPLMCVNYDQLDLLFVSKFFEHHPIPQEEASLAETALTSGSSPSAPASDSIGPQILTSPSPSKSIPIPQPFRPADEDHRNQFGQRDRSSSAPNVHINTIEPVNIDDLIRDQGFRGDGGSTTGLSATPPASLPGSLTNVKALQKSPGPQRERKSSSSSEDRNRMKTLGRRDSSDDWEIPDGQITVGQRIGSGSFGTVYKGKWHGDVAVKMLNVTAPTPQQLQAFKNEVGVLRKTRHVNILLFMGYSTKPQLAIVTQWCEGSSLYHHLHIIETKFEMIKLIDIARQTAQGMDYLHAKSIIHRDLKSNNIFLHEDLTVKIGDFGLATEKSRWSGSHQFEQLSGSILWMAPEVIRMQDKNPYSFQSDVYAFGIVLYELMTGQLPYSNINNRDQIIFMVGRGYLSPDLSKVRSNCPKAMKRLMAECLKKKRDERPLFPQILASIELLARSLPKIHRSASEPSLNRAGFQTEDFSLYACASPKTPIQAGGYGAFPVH

| pIC50 [1] | pIC50 [2] | also measured | Structure (SMILES) |
| --- | --- | --- | --- |
| 9.05 |  |  | Cc1ccc(NC(=O)c2ccnc(C(C)(C)C)c2)cc1-c1cc(N2CCOCC2)c2nccn2n1 [Example 845, 2-(tert-butyl)-N-(4-methyl-3-(8-morpholinoimidazo[1,2-b]pyridazin-6-yl)phenyl)isonicotinamide] |
|  | 8.35 |  | Cc1ncc(NC(=O)c2ccnc(C3CC3)c2)cc1-c1cc(N2CCOCC2)nc(N2CC(C)(O)C2)c1 [Example 1102, 2-cyclopropyl-N-(2′-(3-hydroxy-3-methylazetidin-1-yl)-2-methyl-6′-morpholino-[3,4′-bipyridin]-5-yl)isonicotinamide] |
|  |  | pIC50 (Table 2, 3 hours reaction): 7.89 | COc1ncc(-c2cc(NC(=O)c3ccnc(C(C)C)c3)cnc2C)cc1N1CCOCC1 [Example 323, 2-isopropyl-N-(6′-methoxy-2-methyl-5′-morpholino-[3,3′-bipyridin]-5-yl)isonicotinamide] |
|  | 8.73 |  | Cc1ccc(NC(=O)c2cnnc(C3(C#N)CC3)c2)cc1-c1cc(N2CCOCC2)n(C)c(=O)c1 [Example 899, 6-(1-cyanocyclopropyl)-N-(4-methyl-3-(1-methyl-6-morpholino-2-oxo-1,2-dihydropyridin-4-yl)phenyl)pyridazine-4-carboxamide] |
|  |  | pIC50 (Table 2, 3 hours reaction): 9.15 | Cc1ncc(NC(=O)c2cnnc(C3CC3)c2)cc1-c1cnc(N(C)C)c(N2CCOCC2)c1 [Example 271, 6-cyclopropyl-N-(6′-(dimethylamino)-2-methyl-5′-morpholino-[3,3′-bipyridin]-5-yl)pyridazine-4-carboxamide] |
|  | 7.87 |  | Cc1ncc(NC(=O)c2ccnc(C(C)(C)O)c2)cc1-c1cnc(OC(F)F)c(N2CCOCC2)c1 [Example 979, N-(6′-(difluoromethoxy)-2-methyl-5′-morpholino-[3,3′-bipyridin]-5-yl)-2-(2-hydroxypropan-2-yl)isonicotinamide] |
| 9.00 |  |  | CCNc1nc(-c2cc(NC(=O)c3ccnc(C(C)(F)F)c3)ccc2C)cc(N2CCOCC2)n1 [Example 697, 2-(1,1-difluoroethyl)-N-(3-(2-(ethylamino)-6-morpholinopyrimidin-4-yl)-4-methylphenyl)isonicotinamide] |
| 7.92 |  |  | CCNc1nc(-c2cc(NC(=O)c3ccnc(C(C)(C)O)c3)ccc2C)cc(N2CCOC[C@H]2C)n1 [Example 712, (R)—N-(3-(2-(ethylamino)-6-(3-methylmorpholino)pyrimidin-4-yl)-4-methylphenyl)-2-(2-hydroxypropan-2-yl)isonicotinamide] |
|  | 7.39 |  | Cc1ncc(NC(=O)c2ccnc(C(C)(C)C#N)c2)cc1-c1cc(NCCO)nc(N2CCOCC2)c1 [Example 1042, 2-(2-cyanopropan-2-yl)-N-(2′-((2-hydroxyethyl)amino)-2-methyl-6′-morpholino-[3,4′-bipyridin]-5-yl)isonicotinamide] |
| 8.31 |  |  | Cc1ccc(NC(=O)c2ccnc(C(C)(C)C#N)c2)cc1-c1cc(C2CCOCC2)c(=O)n(C)n1 [Example 675, 2-(2-cyanopropan-2-yl)-N-(4-methyl-3-(1-methyl-6-oxo-5-(tetrahydro-2H-pyran-4-yl)-1,6-dihydropyridazin-3-yl)phenyl)isonicotinamide] |
|  |  | pIC50 (Table 2, 3 hours reaction): 6.70 | Cc1ccc(C(=O)Nc2cccnc2)cc1-c1cc(N2CCOCC2)c(=O)n(C)c1 [Example 433, 4-methyl-3-(1-methyl-5-morpholino-6-oxo-1,6-dihydropyridin-3-yl)-N-(pyridin-3-yl)benzamide] |
| 8.92 |  |  | Cc1ccc(C(=O)Nc2cccc(C(F)(F)F)c2)cc1-c1cc(N2CCOCC2)n(C)c(=O)c1 [Example 517, 4-methyl-3-(1-methyl-6-morpholino-2-oxo-1,2-dihydropyridin-4-yl)-N-(3-(trifluoromethyl)phenyl)benzamide] |
| 7.39 |  |  | Cc1ncc(NC(=O)c2ccnc(C(C)(F)F)c2)cc1-c1cc(N2CCOC[C@H]2C)n(C)c(=O)c1 [Example 524, (R)-2-(1,1-difluoroethyl)-N-(1′,2-dimethyl-6′-(3-methylmorpholino)-2′-oxo-1′,2′-dihydro-[3,4′-bipyridin]-5-yl)isonicotinamide] |
|  | 8.06 |  | Cc1ncc(NC(=O)c2cc(C(C)(C)C#N)ccn2)cc1-c1cnc(OC2CC3(COC3)C2)c(N2CCOCC2)c1 [Example 970, N-(6′-(2-oxaspiro[3.3]heptan-6-yloxy)-2-methyl-5′-morpholino-[3,3′-bipyridin]-5-yl)-4-(2-cyanopropan-2-yl)picolinamide] |
| 8.46 |  |  | COc1nnc(-c2cc(NC(=O)c3ccnc(C4CC4)c3)cnc2C)cc1N1CCOCC1 [Example 606, 2-cyclopropyl-N-(5-(6-methoxy-5-morpholinopyridazin-3-yl)-6-methylpyridin-3-yl)isonicotinamide] |
| 8.57 |  |  | COc1nnc(-c2cc(NC(=O)c3ccnc(C(C)(F)F)c3)cnc2C)cc1N1CCOCC1 [Example 603, 2-(1,1-difluoroethyl)-N-(5-(6-methoxy-5-morpholinopyridazin-3-yl)-6-methylpyridin-3-yl)isonicotinamide] |
| 8.54 |  |  | Cc1ncc(NC(=O)c2ccnc(C(C)(C)F)c2)cc1-c1cc(N2CCOCC2)c(OC2CCOCC2)nn1 [Example 630, 2-(2-fluoropropan-2-yl)-N-(6-methyl-5-(5-morpholino-6-((tetrahydro-2H-pyran-4-yl)oxy)pyridazin-3-yl)pyridin-3-yl)isonicotinamide] |
|  | 9.08 |  | Cc1ncc(NC(=O)c2cccc(C(F)(F)F)c2)cc1-c1cnc(N(C)CCO)c(N2CCOCC2)c1 [Example 986, N-(6′-((2-hydroxyethyl)(methyl)amino)-2-methyl-5′-morpholino-[3,3′-bipyridin]-5-yl)-3-(trifluoromethyl)benzamide] |
|  | 8.38 |  | COc1ncc(-c2cc(NC(=O)c3cccc(C(F)(F)F)c3)nnc2C)cc1N1CCOCC1 [Example 934, N-(5-(6-methoxy-5-morpholinopyridin-3-yl)-6-methylpyridazin-3-yl)-3-(trifluoromethyl)benzamide] |
|  | 8.71 |  | Cc1ccc(NC(=O)c2ccnc(S(C)(=O)=O)c2)cc1-c1cnc(OC[C@H](C)O)c(N2CCOCC2)c1 [Example 989, (S)—N-(3-(6-(2-hydroxypropoxy)-5-morpholinopyridin-3-yl)-4-methylphenyl)-2-(methylsulfonyl)isonicotinamide] |
| 8.17 |  |  | Cc1ccc(NC(=O)c2ccnc(C(C)(C)F)c2)cc1-c1cc(N2CCOC(C)(C)C2)c(=O)n(C)n1 [Example 665, N-(3-(5-(2,2-dimethylmorpholino)-1-methyl-6-oxo-1,6-dihydropyridazin-3-yl)-4-methylphenyl)-2-(2-fluoropropan-2-yl)isonicotinamide] |
|  |  | pIC50 (Table 2, 3 hours reaction): 8.15 | Cc1ccc(C(=O)Nc2cccc(C(F)(F)F)c2)cc1-c1cc(N2CCOCC2)c(=O)n(C)c1 [Example 137, 4-methyl-3-(1-methyl-5-morpholino-6-oxo-1,6-dihydropyridin-3-yl)-N-(3-(trifluoromethyl)phenyl)benzamide] |
| 8.51 |  |  | Cc1ncc(NC(=O)c2ccnc(C3(C#N)CC3)c2)cc1-c1cc(N2CCOCC2)n2nccc2n1 [Example 802, 2-(1-cyanocyclopropyl)-N-(6-methyl-5-(7-morpholinopyrazolo[1,5-a]pyrimidin-5-yl)pyridin-3-yl)isonicotinamide] |
| 7.97 |  |  | Cc1ncc(NC(=O)c2cccc(C(F)(F)F)c2)cc1-c1cc(N2CCOCC2)nc(N2C(=O)OC[C@@H]2C)n1 [Example 781, (S)—N-(6-methyl-5-(2-(4-methyl-2-oxooxazolidin-3-yl)-6-morpholinopyrimidin-4-yl)pyridin-3-yl)-3-(trifluoromethyl)benzamide] |
